# Assay results from patent publication US20250288599A1, “PHARMACEUTICAL COMPOSITIONS AND METHODS FOR TREATING OSTEOARTHRITIS” (INSIGNIA PHARMACEUTICALS, LLC, priority 2024, published 2025).
# Where two headings read alike, the source gives them in different places.
# Experiments:
# [1] = system: PGE2 release from osteoarthritic human synoviocytes; assay: IL-1β-induced PGE2 and PGD2 release from osteoarthritic-synoviocytes; format: cell-based; settings: for IC50: Homo sapiens, read-out: IC50 for PGE2 inhibition
# [2] = system: PGE2 release from normal human chondrocytes; assay: IL-1β-induced PGE2 release from normal human chondrocyte monolayers, 48 h, competitive EIA; format: cell-based
# Protocol: Mechanical stress and inflammation are thought to sustain catabolic cycles of extracellular matrix deterioration during osteoarthritis. In particular, PGE2 correlates with increased protease production and discomfort or pain in osteoarthritis.
# After 48-hours, PGE2 release was evaluated by competitive EIA, and relative potency was calculated versus dose responses of Dex alone.
# After 48 hours, PGE2 release was evaluated by competitive enzyme immunoassay (EIA), and relative potency was calculated versus Dex alone.
# Lac is commonly thought to be simply an end-product of anaerobic glycolysis; however, it may also have immunomodulatory effects and promote protein modifications that alter gene expression. The goal of this experiment was to determine how Lac supplementation affects early-phase, inflammatory, and late-stage redifferentiation in chondrocyte models. To establish how Lac may influence inflammation early in osteoarthritis, monolayers of normal human chondrocytes were exposed to Lac dose responses of up to 100 millimolar, concurrently with 0.5 nanograms per milliliter IL-1β for 48 hours. The release of PGE2 was then quantified using competitive EIA. To investigate how Lac affects transcriptional programs in dedifferentiated osteoarthritic chondrocytes, monolayer cultures and micromass pellets were treated for 14 days with 100 millimolar final concentrations of Lac, with and without 10 nanograms per milliliter transforming growth factor beta 3 (TGF-β3). Total RNA was then isolated, and relative expression of SOX9 or Col2a1 was calculated using qRT-PCR, normalized to GAPDH.
# [3] = cited from earlier work
# [4] = system: SOX9 expression in human osteoarthritic chondrocytes; assay: SOX9 relative expression in high and low passage osteoarthritic chondrocytes, 7, 14 or 28 days; format: cell-based; settings: high passage, dedifferentiated osteoarthritic chondrocytes with TGF-β3, 14 days
# From the text: Media was exchanged bi-weekly. […] SOX9 is a transcription factor vital to the development and maintenance of cartilage and is required for chondrogenesis. SOX9 promotes chondrocyte survival and transcriptionally activates cartilage-specific genes. SOX9 is repressed in hypertrophic chondrocytes (i.e. terminally differentiated osteoblast-like cells).
# [5] = molecular target: PLA2 isolated from bee venom (Apis mellifera, UniProt P00630); format: biochemical
# PLA2 isolated from bee venom, sequence (P00630 34-167 limits assumed): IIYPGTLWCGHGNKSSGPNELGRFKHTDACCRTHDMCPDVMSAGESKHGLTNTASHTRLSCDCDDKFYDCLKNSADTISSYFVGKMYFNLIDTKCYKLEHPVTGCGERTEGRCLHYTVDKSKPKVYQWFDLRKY
# [6] = system: PGE2 release from normal human chondrocytes; assay: IL-1β-induced PGE2 release from normal human chondrocytes, 24 h, DA vs decanoate working solutions; format: cell-based; settings: Homo sapiens, Chondrocyte, 25 micromolar, prepared in medium
# Protocol: The activity of DA working solutions prepared in either saline or lactated ringer's (LR) isotonic solutions was assessed. […] In addition, concentrated decanoate working solutions in saline or LR were prepared and added to the cultures at a final concentration of 25 micromolar. PGE2 release was then compared to matching points on the DA or decanoate medium as well as saline and LR controls.
# [7] = system: PGE2 in primary human osteoarthritic synoviocytes; assay: Early, pretreatment and intracellular vs secreted PGE2 in IL-1β-stimulated human osteoarthritic synoviocytes; format: cell-based
# Protocol: The concentrations in FIG. 31A were measured at hour three.
# Cells were also treated with IL-IRA which inhibits IL-1β by binding the cell-surface […] and inhibiting its dimerization with the IL-1 receptor (IL-1R), effectively blocking IL-1β signaling.
# FIG. 33 illustrates two bar graphs that depict the concentrations of PGE2 inside of the cell versus PGE2 that was secreted into the cell culture media. Specifically, the bar graph labeled “Intracellular” illustrates the concentrations of PGE2 inside of the cell and the bar graph labeled “Supernatent” illustrates the concentration of PGE2 that was secreted into the cell culture media. Synoviocytes were stimulated with IL-1β for 6 hours and then cell culture media harvested separately along with collecting cell lysates. […] To test this, the PGE2 concentrations inside of the cells and in the cell culture media were measured to compare them directly to each other.
# [8] = system: arachidonic acid (AA) in primary human synoviocytes; assay: Early arachidonic acid in IL-1β-stimulated primary human osteoarthritic synoviocytes, 3 h; format: cell-based; settings: IL-1β 1 ng/mL
# Protocol: Early concentrations of arachidonic acid (AA) present in primary human synoviocytes from patients with osteoarthritis that were stimulated with 1 ng/mL final concentration interleukin 1-beta (β) for 3 hours in the presence of varying concentrations of Dex and DA in view of controls are depicted in FIG. 32. The concentrations of AA in FIG. 32 were normalized to total protein content from the cell lysates using bicinchoninic acid (BCA).
# [9] = system: MCP1 in osteoarthritic human synoviocytes; assay: IL-1β-induced MCP1 in osteoarthritic-synoviocytes; format: cell-based; settings: IL-1β 0.5 ng/mL; 0.5, 0.8 or 1 millimolar DA; 0.1-100 nanomolar Dex
# [10] = system: MMP13 expression in dedifferentiated osteoarthritic chondrocytes; assay: MMP13 regulation in high passage osteoarthritic chondrocyte monolayer model, 28 days; format: cell-based, human; settings: 28 days of treatment; 1 mM Try, 0.5 mM DA
# Protocol: (§1) These compounds were tested in a high passage osteoarthritic chondrocyte monolayer model, alone or in combination with other agents, for both transcriptional regulation of standard markers and IL-1β-induced PGE2 production.
# [11] = system: IL-1β release from human THP1 macrophages; assay: Two-hit (LPS then ATP) inflammasome activation model, IL-1β release from THP1 macrophages; format: cell-based; settings: for IC50: Homo sapiens
# From the text: The proinflammatory cytokine, IL-1β, is released from cells upon activation of the inflammasome, a multi-protein proinflammatory complex. A two-hit model of inflammasome activation in THP1 macrophages was developed that entails an overnight stimulation with LPS followed by a second proinflammatory stimulus, extracellular ATP, which drives inflammasome assembly and subsequent IL-1β release from the cells into the media.
# [12] = system: prostaglandin I2 (PGI2) in primary human synoviocytes; assay: PGI2 in IL-1β-stimulated primary human osteoarthritic synoviocytes, 24 h; format: cell-based; settings: IL-1β 1 ng/ml
# Protocol: FIG. 25 is a bar graph that depicts the concentration of prostaglandin I2 (PGI2) present in primary human synoviocytes from patients with osteoarthritis that were stimulated with 1 ng/ml final concentration of IL-1β for 24 hours in the presence of varying concentrations of DA and Dex in view of controls. PGI2 concentration response mirrored PGE2 concentrations after DA treatment. […] It is noted that prostaglandin H2 (PGH2) was also tested and was not detected in either cell culture media or from cell lysates. Without being bound by theory, it is believed that PGH2 is an intermediate and is (near) immediately converted into downstream prostaglandins and therefore levels of PGH2 are not detectable.
# Cyclooxygenase-2 (COX-2) = Cyclooxygenase-2 (COX-2) (Homo sapiens, UniProt P35354); assay: COX-2 inhibitor screen; format: biochemical; settings: any of the concentrations tested; Celecoxib positive control
# Cyclooxygenase-2 (COX-2), sequence (P35354 18-604, species assumed): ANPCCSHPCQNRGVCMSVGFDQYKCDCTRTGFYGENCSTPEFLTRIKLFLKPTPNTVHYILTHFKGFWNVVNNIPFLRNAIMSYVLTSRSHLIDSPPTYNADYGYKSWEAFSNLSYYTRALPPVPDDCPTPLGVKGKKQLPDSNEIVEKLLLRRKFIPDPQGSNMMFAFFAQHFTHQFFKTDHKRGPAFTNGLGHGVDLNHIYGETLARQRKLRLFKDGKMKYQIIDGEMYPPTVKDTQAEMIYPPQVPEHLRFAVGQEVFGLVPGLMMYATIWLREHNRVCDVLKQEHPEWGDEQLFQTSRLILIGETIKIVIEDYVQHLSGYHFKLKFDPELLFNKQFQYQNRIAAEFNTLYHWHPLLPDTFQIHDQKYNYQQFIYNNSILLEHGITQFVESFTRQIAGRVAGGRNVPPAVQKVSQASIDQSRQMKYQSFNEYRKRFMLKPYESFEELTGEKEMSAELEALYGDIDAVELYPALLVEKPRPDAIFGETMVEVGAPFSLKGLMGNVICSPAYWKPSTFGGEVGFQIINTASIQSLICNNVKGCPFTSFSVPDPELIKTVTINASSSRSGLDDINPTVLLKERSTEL
# From the text: Celecoxib (Celebrex) was used as a positive control for COX-2.
# [13] = system: Col2a1 expression in dedifferentiated osteoarthritic chondrocytes; assay: Col2a1 relative expression in high passage osteoarthritic chondrocyte monolayer model with TGF-β; format: cell-based, human; settings: TGF-β added to the model; 1 mM Try, 0.5 mM DA
# Protocol: as §1
# [14] = system: MMP13 expression in human osteoarthritic chondrocytes; assay: MMP13 relative expression in human osteoarthritic chondrocytes treated with DA and/or Try; format: cell-based; settings: 28-day monolayer culture; 0.5 mM DA, 1 mM Try
# Protocol: (§2) Total mRNA was then isolated at the indicated times, and qRTPCR was performed with primers specific for MMP13, Col2a1, and the housekeeping gene GAPDH. Relative expression was then calculated versus controls, with normalization to GAPDH.
# [15] = system: Col2a1 expression in human osteoarthritic chondrocytes; assay: Col2a1 relative expression in human osteoarthritic chondrocytes treated with DA and/or Try with TGF-β3; format: cell-based; settings: 14-day monolayer culture with TGF-β3; 0.5 mM DA, 1 mM Try
# Protocol: as §2
smiles,measurement,setting,value
"CCCCCCCCCC(=O)O [DA, decanoic acid]",increase of DA potency by 100 picomolar Dex,[1],2.2 ×
same,IC50,"[1]; DA alone, IL-1β 0.5 ng/mL",19.4 µM
same,IC50,[1]; DA in the presence of 100 picomolar Dex,8.62 µM
same,DA concentration above which PGE2 and PGD2 release was inhibited,[1]; IL-1β 0.5 ng/mL,above 1 micromolar
same,inhibition at 500 µM,"[2]; Homo sapiens, Chondrocyte, DA 500 micromolar final, IL-1β 500 pg/mL, 48 h",100%
same,final concentration at which significant inhibition of PGE2 release was observed,[2]; p-value≤0.05 versus medium controls,6 µM
same,pKa (negative log of acid dissociation constant),[3],about 4.9
same,SOX9 expression,[4],increased SOX9 transcription
same,PLA2 activity inhibition,[5],no significant signs of PLA2 activity inhibition
same,inhibition at 25 µM,[6],62.4%
same,"PGE2 release after pretreatment (5 minutes, 1 hour, or 2 hours) then IL-1β 10 minutes or 1 hour","[7]; 200 nanomolar DA or 500 nanograms/milliliter IL-1RA, IL-1β 1 nanogram/milliliter",blocked the low-level activation
same,intracellular versus secreted PGE2,"[7]; IL-1β 1 ng/ml, 6 hours",causes PGE2 to build up intracellularly instead of getting secreted
same,PGE2 concentration,"[7]; measured at hour three, IL-1β 1 ng/mL",less than 5000 pg/ml
same,AA concentration normalized to total protein,[8],lower than that of the control with IL-1β
same,effect on MCP1,[9],reduction in MCP1 in a dose dependent manner
same,MMP13 regulation,[10],1.12 fold
same,increased DA potency by 25 nanomolar Dex,[11],1.917 ×
same,IC50,"[11]; THP-1, DA alone, 0.02 to 1.8 millimolar, three independent experiments",125 µM
same,IC50,"[11]; THP-1, DA with addition of 25 nanomolar Dex",65 µM
same,IC50,"[11]; THP-1, repeated experiments comparing DA to sodium decanoate",172 µM
same,secreted PGI2 levels,[12],decreases secreted PGI2 levels
same,inhibition of COX-2 activity,Cyclooxygenase-2 (COX-2),no observed inhibition
same,Col2a1 regulation,[13],26 fold
"N[C@@H](Cc1c[nH]c2ccccc12)C(=O)O [Try, tryptophan]",Observed Relative expression of MMP13,[14],−2.6 fold
same,MMP13 regulation,[10],−3.32 fold
same,Observed Relative expression of Col2a1,[15],−1.4 fold
same,Col2a1 regulation,[13],−1.36 fold
